Source: paper PMC11672299, “Conjugation of Polycationic Peptides Extends the Efficacy Spectrum of β‐Lactam Antibiotics” (Advanced Science, 2024)

What was measured:
[1] = tested on: A. baumannii SC300007 (Oxa23); test: microbe, parasite or virus in culture; assay type: cell-based; conditions: Acinetobacter baumannii, 20 h, combinations: avibactam fixed 4 mg L^−1, clavulanic acid 2 mg L^−1, median (n = 3)
Outline: (§1)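 Susceptibility is determined by broth microdilution, with inocula of 5 × 10^5 CFU mL^−1 in cation-adjusted MHB II and 20 h incubation at 37 ± 1 °C. For inhibitor combinations, clavulanic acid (2 mg L^−1) or avibactam (4 mg L^−1) is held constant following EUCAST guidance.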

[2] = tested on: A. pittii Tü21‐041 (clinical isolate); test: microbe, parasite or virus in culture; assay type: cell-based; conditions: Acinetobacter pittii; A. pittii Tü21‐041; median (n = 3); read-out: MIC
Outline: as §1

[3] = tested on: E. coli ATCC 25 922 (–); test: microbe, parasite or virus in culture; assay type: cell-based; conditions: Escherichia coli, 20 h; E. coli ATCC 25922 (no β‐lactamase); combinations: avibactam fixed 4 mg L^−1, clavulanic acid 2 mg L^−1; median (n = 3)
Outline: as §1

[4] = tested on: E. coli Tü21‐031 (Oxa244, ESBL); test: microbe, parasite or virus in culture; assay type: cell-based; conditions: Escherichia coli, combinations: avibactam fixed 4 mg L^−1, median (n = 3)
Outline: as §1

[5] = tested on: K. pneumoniae ATCC 700 603 (SHV‐18); test: microbe, parasite or virus in culture; assay type: cell-based; conditions: Klebsiella pneumoniae, 20 h; K. pneumoniae ATCC 700603 (SHV‐18); combinations: avibactam fixed 4 mg L^−1, clavulanic acid 2 mg L^−1; median (n = 3)
Outline: as §1

[6] = tested on: K. pneumoniae BL809453 (KPC); test: microbe, parasite or virus in culture; assay type: cell-based; conditions: Klebsiella pneumoniae, 20 h, combinations: avibactam fixed 4 mg L^−1, clavulanic acid 2 mg L^−1, median (n = 3)
Outline: as §1

[7] = target: T1, PBP2A (Bacillus subtilis, UniProt P54488); test: Gel‐based PBP affinity assay (Bocillin FL competition); assay type: binding; conditions: B. subtilis membrane fractions, competition with Bocillin FL penicillin; compared with parent β‐lactam
T1 construct: endogenous in cells; host or cells: B. subtilis DSM 10, extracted membrane protein fraction
T1 sequence (P54488 whole entry): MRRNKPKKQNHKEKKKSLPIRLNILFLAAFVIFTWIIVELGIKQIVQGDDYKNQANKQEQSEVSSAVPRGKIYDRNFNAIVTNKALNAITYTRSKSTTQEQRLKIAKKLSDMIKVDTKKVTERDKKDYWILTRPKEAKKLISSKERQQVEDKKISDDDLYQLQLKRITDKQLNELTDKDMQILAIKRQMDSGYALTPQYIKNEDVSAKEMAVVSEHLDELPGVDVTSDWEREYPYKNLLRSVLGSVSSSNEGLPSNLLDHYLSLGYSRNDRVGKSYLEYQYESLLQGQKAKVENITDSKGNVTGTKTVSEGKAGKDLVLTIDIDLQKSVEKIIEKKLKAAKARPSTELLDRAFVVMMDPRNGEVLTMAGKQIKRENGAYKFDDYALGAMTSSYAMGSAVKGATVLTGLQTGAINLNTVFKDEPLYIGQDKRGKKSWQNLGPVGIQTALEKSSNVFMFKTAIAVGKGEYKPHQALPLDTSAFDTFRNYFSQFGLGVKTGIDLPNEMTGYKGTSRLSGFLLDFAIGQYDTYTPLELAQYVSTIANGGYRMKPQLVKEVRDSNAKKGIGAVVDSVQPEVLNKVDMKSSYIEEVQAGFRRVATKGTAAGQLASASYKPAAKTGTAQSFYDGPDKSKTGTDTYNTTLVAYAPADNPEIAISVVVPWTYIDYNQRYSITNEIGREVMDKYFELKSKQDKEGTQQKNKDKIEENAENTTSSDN

[8] = tested on: PBP5; test: as above; assay type: binding; conditions: PBPs from vancomycin‐resistant E. faecalis; compared with parent; at concentrations considerably higher than MICs

SMILES | MIC [1] [µg/mL] | MIC [2] [µg/mL] | MIC [3] [µg/mL] | MIC [4] [µg/mL] | MIC [5] [µg/mL] | MIC [6] [µg/mL] | affinity to PBP2A [7] | binding to PBP5 [8]
CC(C)(O/N=C(\C(=O)N[C@@H]1C(=O)N2C(C(=O)[O-])=C(C[n+]3ccccc3)CS[C@H]12)c1csc(N)n1)C(=O)O [CTZ, ceftazidime, reference compound] | > 64 | 4 | 0.25 | 32 | 64 | > 64 | – | –
CC(C)(O/N=C(\C(=O)N[C@@H]1C(=O)N2C(C(=O)[O-])=C(C[n+]3ccccc3)CS[C@H]12)c1csc(N)n1)C(=O)NCCCCCCN1C(=O)CC(SC[C@H](NC(=O)[C@H](CCCNC(=N)N)NC(=O)[C@H](CCCNC(=N)N)NC(=O)[C@H](CCCNC(=N)N)NC(=O)[C@H](CCCNC(=N)N)NC(=O)[C@H](CCCNC(=N)N)NC(=O)[C@@H](N)CCCNC(=N)N)C(N)=O)C1=O (some centres unmarked) [CTZ-R6] | – | – | – | – | – | – | significantly increased | slightly improved binding
